Test results as given in US20220168258A1, “METHOD FOR TREATING FEMALE NON-SMOKERS WITH NON-SMALL CELL LUNG CANCER” (Lantern Pharma Inc., priority 2019, published 2022).

Legend:
[1] = system: chemotherapy-induced toxicities; settings: human, in vivo
[2] = system: female adenocarcinoma patients; settings: double-blind, placebo-controlled trial, Japan
[3] = system: NSCLC adenocarcinoma patients

disodium 2′-dithio-bis-ethane
anemia [1]: reduced anemia
chemotherapy-induced kidney toxicity [1]: protection against chemotherapy-induced kidney toxicity
neuropathy and other chemotherapy-induced toxicities [1]: protect against neuropathy & other chemotherapy-induced toxicities
survival result in female adenocarcinoma patients [2]: Consistent statistically significant results
survival in all genders and smoking status groups ([3]; all genders and smoking status groups): marginally increased survival
clinical efficacy endpoints and subgroup responses ([3]; background statement): did not meet clinical efficacy endpoints
survival in female non-smokers ([3]; female non-smokers, increase from 13 months): 25 months
percentage of patients undergoing treatment failure (FIG. 3) ([3]; females non-smokers): the least
2-year survival ([3]; females with advanced adenocarcinoma of the lung receiving paclitaxel/cisplatin): 51.4%
overall survival ([3]; females with advanced adenocarcinoma of the lung receiving paclitaxel/cisplatin, subgroup of 114 female patients, retrospective analysis): 25.0 months
overall survival benefit (FIG. 1) ([3]; females, non-smokers and female non-smokers receiving Cisplatin/Paclitaxel): remarkable survival benefit
percentage of patients undergoing treatment failure (FIG. 2) ([3]; non-smokers): the least
HR (overall survival) ([3]; subgroup of 114 female patients, retrospective analysis, p-value=0.0477): 0.579
